Data on three compounds can be found in patent US20220354782A1, “SUBCUTANEOUSLY INJECTABLE INSULIN AND GLUCAGON FORMULATIONS AND METHODS OF ADMINISTRATION” (CASS PHARMACEUTICALS, INC., priority 2019, published 2022).

A short description of data set [1]: Solubility of insulin, FDKP and insulin plus FDKP between pH 6.0 and pH 7.4 (Example 9). The format is physicochemical. The method, then: A standard solution of insulin (using recombinant human insulin) was made in 0.05N aqueous HCl. An aliquot (1 mg) of the solution was transferred into 4 different Eppendorf tubes and 9 mg of solid Na2-FDKP was added into each tube. A milky suspension formed immediately. The pH was adjusted to the values between pH 6.0 and pH 7.4 using 0.1N aqueous NaOH. Samples of insulin alone were compared to FDKP alone and to the solution of insulin and FDKP. The insulin alone samples were all insoluble. […] All samples containing 9 mg/ml FDKP and 1 mg/ml insulin were soluble at all pH values.

Data set [2] can be described thus: FDKP micelle formation. The format is physicochemical. The note with it: FIG. 3. The method, then: FIG. 3 is a graph depicting the concentration of FDKP for forming micelles in phosphate buffer at pH 7.4 above 0.03 mg/ml.
Without being restricted to any one mechanism for creating the ultra-fast insulin formulations, a diketopiperazine, for example FDKP, has effects as an absorption enhancer and permeation enhancer, a metal chelator, a surfactant, a bolaamphiphile, and an aggregation inhibitor, and promotes enhanced absorption through a combination of these effects, including enhancing the amount of monomer insulin in solution upon injection. For example, the fumaric acid charges on the FDKP may serve to charge-mask insulin positive charges, reducing the overall charge on the insulin, and making it more likely to be absorbed, especially when formulations have a pH of about 6.0 to about 7.2, as described herein.

For data set [3], the system named is diabetic minipigs. Description: Glucose response after subcutaneous injection in diabetic minipigs (Example 8). It is filed as in vivo, Yucatan minipigs. The method, then:
Recombinant human insulin were prepared in ultra-fast acting subcutaneous injectable formulations in aqueous solutions containing FDKP at pH 6.5 and 7.4, as summarized in Table 6. All formulation preparation was conducted in a laminar flow hood and the final solutions were filtered through 0.2 micron filters. Both formulations were injected into the subcutaneous tissue of diabetic minipigs (Yucatan minipigs rendered diabetic by treatment with alloxan).
The glucose response from the pH 6.5 formulation compared to a subcutaneous injection of standard lispro insulin is shown in FIG. 1. […] Time to 50% glucose reduction from the formulation is 30 minutes, while that from standard lispro is 50 minutes.
The glucose response from the […] formulation compared to a subcutaneous injection of the ultra-fast acting pH 6.5 formulation, both containing FDKP, are shown in FIG. 2. […] The strong pH dependency of the absorption rate was not anticipated. While not wanting to be held to a specific mechanism for the rapid absorption, the lower pH solution appears to cause there to be less charge on the FDKP, which would make it more hydrophobic, and therefore more likely to bind tightly to the insulin molecule, thereby reducing the overall charge on insulin, causing there to be more monomers in solution, and enhancing the absorption by several mechanisms.

Read-outs that look alike come from different tables or passages of the source. Where only a bound is given, the exact number is not on record here.

As to `O=C(O)/C=C/C(=O)NCCCCC1NC(=O)C(CCCCNC(=O)/C=C/C(=O)O)NC1=O` (centres unmarked) [FDKP, 2,5-diketo-3,6-di(4-fumarylaminobutyl)piperazine], the solubility entry in data set [1] (below pH 7.0) was “insoluble”; in data set [1] (pH 6.0) it was “Insoluble”; in data set [1] (pH 6.5), “Insoluble”; in data set [1] (pH 7.0, listed as FDKP (9 mg/mL)), “Partial”; in data set [1] (pH 7.0, listed as FDKP alone) it was “partially soluble”; in data set [1] (pH 7.4, listed as FDKP (9 mg/mL)), “Soluble”. Further, the solubility entry in data set [1] (pH 7.4, listed as FDKP alone) is recorded as “soluble”. Also, the “concentration for forming micelles” value in data set [2] is not below 62 µM.

Regarding “Insulin (1 mg/mL): Recombinant human insulin, 1 mg/mL, without FDKP [reference compound]”, the solubility result in data set [1] is “insoluble”; in data set [1] (pH 6), “insoluble”; in data set [1] (pH 6.5) it was “Insoluble”; in data set [1] (pH 7) it was “Insoluble”; in data set [1] (pH 7.4), “Insoluble”.

For the compound insulin lispro [standard lispro], the “Time to 50% glucose reduction” value in data set [3] was 50 min.
